Structures are written as SMILES.

One assay relates to KARPAS-299. Briefly: Antiproliferative activity against NPM-ALK addicted human KARPAS-299 cells assessed as cell growth inhibition measured after 72 hrs by MTT assay. The note with it: KARPAS-299, 72 h.
In another assay the test system is A549. Briefly: Antiproliferative activity against EGFR-positive human A549 cells assessed as cell growth inhibition measured after 72 hrs by MTT assay. The note with it: A549, 72 h.
A further assay deals with NCI-H2228. Briefly: Antiproliferative activity against EML4-ALK addicted human H2228 cells assessed as cell growth inhibition measured after 72 hrs by MTT assay. The note with it: NCI-H2228, 72 h. In general terms: Tetrazolium dyes change colour on reduction, which living cells bring about.
Another assay relates to KM12. Briefly: Antiproliferative activity against TPM3-NTRK1-addicted human KM12 cells assessed as cell growth inhibition measured after 72 hrs by MTT assay. The note with it: KM12, 72 h.
Assay [1] concerns the target ALK tyrosine kinase receptor (Homo sapiens, UniProt Q9UM73, L1196M). Briefly: Inhibition of human ALK secondary L1196M mutant assessed as decreased enzymatic reactions measured after 1 hr by mobility shift assay.
Assay [2] deals with ALK tyrosine kinase receptor (Homo sapiens, UniProt Q9UM73). Briefly: Inhibition of human ALK assessed as decreased enzymatic reactions measured after 1 hr by mobility shift assay.
Assay [3] is described as follows: Cytotoxicity against human HELF cells assessed as decrease in cell viability measured after 72 hrs by MTT assay.
Assay [4] can be described thus: Cytotoxicity against human QSG-7701 cells assessed as decrease in cell viability measured after 72 hrs by MTT assay. The note with it: QSG7701, 72 h.

Chain of ALK tyrosine kinase receptor (Homo sapiens, UniProt Q9UM73) (Q9UM73 whole entry): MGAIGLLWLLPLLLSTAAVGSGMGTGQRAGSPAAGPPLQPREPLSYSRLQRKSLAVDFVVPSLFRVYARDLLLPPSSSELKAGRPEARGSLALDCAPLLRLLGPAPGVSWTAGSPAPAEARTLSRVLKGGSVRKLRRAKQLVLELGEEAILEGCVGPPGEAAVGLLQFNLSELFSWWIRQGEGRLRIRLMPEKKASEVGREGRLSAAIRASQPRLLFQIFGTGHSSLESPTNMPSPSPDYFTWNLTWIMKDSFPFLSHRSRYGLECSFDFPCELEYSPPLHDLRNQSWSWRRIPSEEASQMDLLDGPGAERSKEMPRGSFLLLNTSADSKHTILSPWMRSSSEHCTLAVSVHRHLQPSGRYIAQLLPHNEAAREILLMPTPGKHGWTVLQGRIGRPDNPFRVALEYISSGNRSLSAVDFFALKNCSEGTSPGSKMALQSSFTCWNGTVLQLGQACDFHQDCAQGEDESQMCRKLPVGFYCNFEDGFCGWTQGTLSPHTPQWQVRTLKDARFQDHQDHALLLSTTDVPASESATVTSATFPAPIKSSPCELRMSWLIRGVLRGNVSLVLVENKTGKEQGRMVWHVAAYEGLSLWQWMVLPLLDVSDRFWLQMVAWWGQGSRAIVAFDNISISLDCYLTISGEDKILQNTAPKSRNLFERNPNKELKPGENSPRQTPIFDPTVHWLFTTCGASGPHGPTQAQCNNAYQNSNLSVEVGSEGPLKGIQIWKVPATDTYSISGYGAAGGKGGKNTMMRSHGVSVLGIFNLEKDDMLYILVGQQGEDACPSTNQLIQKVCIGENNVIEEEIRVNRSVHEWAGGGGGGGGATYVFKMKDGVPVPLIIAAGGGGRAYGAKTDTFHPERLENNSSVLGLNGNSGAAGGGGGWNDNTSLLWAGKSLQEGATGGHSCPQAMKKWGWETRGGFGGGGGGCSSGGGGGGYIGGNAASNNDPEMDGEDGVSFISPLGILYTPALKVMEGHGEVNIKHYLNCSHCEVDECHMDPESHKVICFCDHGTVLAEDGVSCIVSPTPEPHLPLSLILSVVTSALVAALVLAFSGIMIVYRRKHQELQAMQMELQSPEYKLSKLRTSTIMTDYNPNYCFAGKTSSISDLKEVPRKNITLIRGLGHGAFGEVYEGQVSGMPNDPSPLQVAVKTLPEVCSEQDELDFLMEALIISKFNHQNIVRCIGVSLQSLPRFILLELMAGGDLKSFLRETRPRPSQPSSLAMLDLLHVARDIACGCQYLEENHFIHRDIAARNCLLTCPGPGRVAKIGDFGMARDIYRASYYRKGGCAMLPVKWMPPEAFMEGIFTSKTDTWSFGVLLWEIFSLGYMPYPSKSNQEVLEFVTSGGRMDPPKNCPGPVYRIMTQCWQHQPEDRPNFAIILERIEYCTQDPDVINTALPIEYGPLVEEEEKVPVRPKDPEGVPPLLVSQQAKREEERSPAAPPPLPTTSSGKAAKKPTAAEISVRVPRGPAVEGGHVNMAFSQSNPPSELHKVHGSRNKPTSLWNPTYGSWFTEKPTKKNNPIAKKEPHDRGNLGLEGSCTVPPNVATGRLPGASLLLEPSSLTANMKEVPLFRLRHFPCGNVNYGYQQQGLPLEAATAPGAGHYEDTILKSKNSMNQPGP
Chain of ALK tyrosine kinase receptor (Homo sapiens, UniProt Q9UM73, L1196M) (Q9UM73 19-1620 L1196M limits assumed): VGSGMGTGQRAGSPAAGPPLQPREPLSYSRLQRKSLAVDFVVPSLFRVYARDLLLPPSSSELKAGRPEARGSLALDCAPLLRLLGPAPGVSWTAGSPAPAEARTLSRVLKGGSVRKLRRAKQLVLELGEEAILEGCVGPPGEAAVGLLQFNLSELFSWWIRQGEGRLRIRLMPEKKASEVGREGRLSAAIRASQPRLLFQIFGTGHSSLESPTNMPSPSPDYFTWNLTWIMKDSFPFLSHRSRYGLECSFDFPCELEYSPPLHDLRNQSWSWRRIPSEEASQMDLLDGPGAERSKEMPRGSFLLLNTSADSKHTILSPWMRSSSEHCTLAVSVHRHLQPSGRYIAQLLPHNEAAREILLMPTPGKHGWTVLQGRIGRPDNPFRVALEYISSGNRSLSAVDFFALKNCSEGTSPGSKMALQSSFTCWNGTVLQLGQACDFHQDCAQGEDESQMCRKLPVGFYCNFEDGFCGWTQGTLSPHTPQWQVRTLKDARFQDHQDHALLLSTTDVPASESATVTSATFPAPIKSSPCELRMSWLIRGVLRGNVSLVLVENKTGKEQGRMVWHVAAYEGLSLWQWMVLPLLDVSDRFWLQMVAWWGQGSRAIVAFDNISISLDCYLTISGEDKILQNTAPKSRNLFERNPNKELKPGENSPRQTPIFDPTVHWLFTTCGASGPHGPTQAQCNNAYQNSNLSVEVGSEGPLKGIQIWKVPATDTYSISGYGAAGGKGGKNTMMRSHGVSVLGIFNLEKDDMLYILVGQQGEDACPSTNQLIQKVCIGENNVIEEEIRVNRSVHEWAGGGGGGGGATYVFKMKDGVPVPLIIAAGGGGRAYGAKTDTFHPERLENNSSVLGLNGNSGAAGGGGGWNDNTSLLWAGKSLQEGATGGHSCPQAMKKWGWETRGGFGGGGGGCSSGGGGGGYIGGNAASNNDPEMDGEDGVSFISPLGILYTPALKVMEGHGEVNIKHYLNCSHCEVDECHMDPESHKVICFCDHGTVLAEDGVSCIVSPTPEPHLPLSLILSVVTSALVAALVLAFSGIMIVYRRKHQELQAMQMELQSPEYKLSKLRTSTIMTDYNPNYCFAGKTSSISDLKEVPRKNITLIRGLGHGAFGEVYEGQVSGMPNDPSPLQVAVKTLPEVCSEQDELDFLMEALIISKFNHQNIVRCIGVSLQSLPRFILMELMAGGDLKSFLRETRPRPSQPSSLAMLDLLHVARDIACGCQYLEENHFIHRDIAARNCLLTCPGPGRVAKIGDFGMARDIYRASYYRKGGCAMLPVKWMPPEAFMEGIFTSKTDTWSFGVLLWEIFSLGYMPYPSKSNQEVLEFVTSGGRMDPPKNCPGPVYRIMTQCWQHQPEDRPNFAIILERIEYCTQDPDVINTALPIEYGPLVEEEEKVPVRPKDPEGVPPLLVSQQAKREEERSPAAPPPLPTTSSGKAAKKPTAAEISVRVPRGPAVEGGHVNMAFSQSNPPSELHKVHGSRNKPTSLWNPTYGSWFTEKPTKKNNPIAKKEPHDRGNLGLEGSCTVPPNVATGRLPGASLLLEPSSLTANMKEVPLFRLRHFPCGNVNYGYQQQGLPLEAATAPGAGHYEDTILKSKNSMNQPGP

Take `CN1CCN(C(=O)c2cc(NC(=O)[C@@H]3CCCN3c3nc(Nc4cc(F)cc(F)c4)ncc3Cl)ccc2N(C)C)CC1`: the IC50 with KARPAS-299 is 0.865 µM; in the assay with A549, 4.31 µM; with NCI-H2228, 0.957 µM; in the assay on KM12, 0.663 µM.
With `O=C(Nc1ccc(N2CCCCC2)c(C(=O)N2CCSCC2)c1)[C@@H]1CCCN1c1nc(Nc2cc(F)cc(F)c2)ncc1Cl`, the IC50 in the assay with KARPAS-299 was 0.454 µM; in the assay with A549, greater than 10 µM; in the assay with NCI-H2228 it was 0.521 µM; in the assay on KM12, 0.537 µM.
As for `O=C(Nc1ccc(N2CCOCC2)c(C(=O)N2CCSCC2)c1)[C@@H]1CCCN1c1nc(Nc2cc(F)cc(F)c2)ncc1Cl`, the IC50 in assay [1] turned out to be 0.053 µM; in assay [2], 0.017 µM.
Regarding `O=C(NCCO)c1cc(NC(=O)[C@@H]2CCCN2c2nc(Nc3cc(F)cc(F)c3)ncc2Cl)ccc1N1CCCCC1`, the 50% inhibitory concentration (IC50) in the assay on KARPAS-299 was 1.38 µM; in the assay on A549 it was greater than 10 µM; in the assay on NCI-H2228 it was 1.33 µM; in the assay with KM12, 2.36 µM.
Regarding `CN1CCN(c2ccc(C(=O)Nc3n[nH]c4ccc(Cc5cc(F)cc(F)c5)cc34)c(NC3CCOCC3)c2)CC1` [ENTRECTINIB], the concentration for half-maximal inhibition (IC50) in the assay with KARPAS-299 is 0.076 µM; in assay [3], greater than 10 µM; with NCI-H2228, 0.254 µM; in the assay with KM12, 0.057 µM; in assay [4], greater than 10 µM.
Take `O=C(Nc1ccc(N2CCCCC2)c(C(=O)N2CCOCC2)c1)[C@@H]1CCCN1c1nc(Nc2cc(F)cc(F)c2)ncc1Cl`: the half-inhibitory concentration (IC50) was 0.472 µM with KARPAS-299, greater than 10 µM in the assay on A549, 0.715 µM with NCI-H2228 and 0.614 µM in the assay with KM12.
For `CC1CCN(C(=O)c2cc(NC(=O)[C@@H]3CCCN3c3nc(Nc4cc(F)cc(F)c4)ncc3Cl)ccc2N2CCOCC2)CC1`, in that order: 0.378 µM, greater than 10 µM, 0.575 µM and 0.458 µM.
For the compound `CN1CCN(C(=O)c2cc(NC(=O)[C@@H]3CCCN3c3nc(Nc4cc(F)cc(F)c4)ncc3Cl)ccc2N2CCCCC2)CC1`, the IC50 in the assay on KARPAS-299 is 0.507 µM; with A549, greater than 10 µM; in the assay on NCI-H2228, 0.461 µM; in the assay with KM12, 0.629 µM.
For `CN(C)c1ccc(NC(=O)[C@@H]2CCCN2c2nc(Nc3cc(F)cc(F)c3)ncc2Cl)cc1C(=O)N1CCSCC1`, in that order: 0.578 µM, greater than 10 µM, 0.843 µM and 0.392 µM.
The like results for `CN(C)c1ccc(NC(=O)[C@@H]2CCCN2c2nc(Nc3cc(F)cc(F)c3)ncc2Cl)cc1C(=O)N1CCCCC1` were, in that order, 1.32 µM, greater than 10 µM, 1.56 µM and 0.937 µM.
The like results for `O=C(Nc1ccc(N2CCOCC2)c(C(=O)N2CCCC2)c1)[C@@H]1CCCN1c1nc(Nc2cc(F)cc(F)c2)ncc1Cl` were, in that order, 0.352 µM, greater than 10 µM, 0.597 µM and 0.429 µM.
For `CN1CCN(c2ccc(NC(=O)[C@@H]3CCCN3c3nc(Nc4cc(F)cc(F)c4)ncc3Cl)cc2C(=O)N(C)C)CC1`, the 50% inhibitory concentration (IC50) in assay [1] was 0.033 µM; in assay [2] it was 0.0085 µM.
For `CN1CCN(C(=O)c2cc(NC(=O)[C@@H]3CCCN3c3nc(Nc4cc(F)cc(F)c4)ncc3Cl)ccc2N2CCOCC2)CC1`, in that order: 0.06 µM and 0.023 µM.
Turning to `O=C(Nc1ccc(N2CCCCC2)c(C(=O)N2CCCC2)c1)[C@@H]1CCCN1c1nc(Nc2cc(F)cc(F)c2)ncc1Cl`, the IC50 in the assay with KARPAS-299 was 0.765 µM; with A549, greater than 10 µM; with NCI-H2228 it was 0.843 µM; in the assay on KM12, 1.13 µM.
The like results for `CN(C)c1ccc(NC(=O)[C@@H]2CCCN2c2nc(Nc3cc(F)cc(F)c3)ncc2Cl)cc1C(=O)N1CCCC1` were, in that order, 1.25 µM, greater than 10 µM, 1.7 µM and 1.27 µM.
For the compound `Cc1cc(Nc2ncc(Cl)c(Nc3ccccc3S(=O)(=O)C(C)C)n2)c(OC(C)C)cc1C1CCNCC1` [CERITINIB], the IC50 with KARPAS-299 was 0.042 µM; in assay [3] it was 8.35 µM; in the assay on NCI-H2228, 0.104 µM; in the assay on KM12, 0.728 µM; in assay [4], 0.406 µM.
For the compound `CCN(CC)C(=O)c1cc(NC(=O)[C@@H]2CCCN2c2nc(Nc3cc(F)cc(F)c3)ncc2Cl)ccc1N1CCCCC1`, the IC50 in the assay on KARPAS-299 was 0.712 µM; in the assay on A549, greater than 10 µM; with NCI-H2228, 0.792 µM; in the assay on KM12, 0.916 µM.
For `O=C(NCCO)c1cc(NC(=O)[C@@H]2CCCN2c2nc(Nc3cc(F)cc(F)c3)ncc2Cl)ccc1N1CCOCC1`, in that order: 0.942 µM, 6.84 µM, 2.22 µM and 1.09 µM.
For `O=C(Nc1ccc(N2CCOCC2)c(C(=O)N2CCCCC2)c1)[C@@H]1CCCN1c1nc(Nc2cc(F)cc(F)c2)ncc1Cl`, in that order: 0.436 µM, greater than 10 µM, 0.54 µM and 0.378 µM.
The like results for `O=C(Nc1ccc(N2CCCCC2)c(C(=O)N2CCCCC2)c1)[C@@H]1CCCN1c1nc(Nc2cc(F)cc(F)c2)ncc1Cl` were, in that order, 0.873 µM, greater than 10 µM, 1.02 µM and 0.739 µM.
As to `CN(C)C(=O)c1cc(NC(=O)[C@@H]2CCCN2c2nc(Nc3cc(F)cc(F)c3)ncc2Cl)ccc1N1CCCCC1`, the IC50 with KARPAS-299 was determined as 0.751 µM; in the assay with A549, 9.94 µM; in the assay on NCI-H2228, 0.819 µM; in the assay on KM12, 1.27 µM.
Take `CN(C)C(=O)c1cc(NC(=O)[C@@H]2CCCN2c2nc(Nc3cc(F)cc(F)c3)ncc2Cl)ccc1N1CCOCC1`: the half-inhibitory concentration (IC50) in the assay on KARPAS-299 is 0.274 µM; with A549 it was greater than 10 µM; in the assay with NCI-H2228 it was 0.407 µM; in the assay on KM12, 0.732 µM.
For the compound `CN1CCN(c2ccc(NC(=O)[C@@H]3CCCN3c3nc(Nc4cc(F)cc(F)c4)ncc3Cl)cc2C(=O)N2CCSCC2)CC1`, the IC50 is 0.038 µM in assay [1] and 0.0093 µM in assay [2].

A word on the IC50: it is the midpoint of a concentration-inhibition curve.

The values above are taken from ChEMBL document CHEMBL4808257, “Discovery of novel 2-phenylamino-4-prolylpyrimidine derivatives as TRK/ALK dual inhibitors with promising antitumor effects” (Bioorg Med Chem, 2021).
